Experimental data published in PMC6592549, “Ligand-guided homology modeling drives identification of novel histamine H3 receptor ligands” (PLoS ONE, 2019).
Like-named read-outs stand apart in the source and are kept apart here. Values belong to the compound of their own block, whether it stands above or below them.

Experiments:
[1] = target: Histamine H3 receptor (H3R); details: Table A in S1 File, cited from earlier work
[2] = target: Histamine H3 receptor (H3R); details: Table A in S1 File, cited from earlier work; remark: listed apart in the source
[3] = target: T1, hH3R (Homo sapiens, UniProt Q9Y5N1); experiment: Radioligand depletion assay with [3H]-N-alpha-methylhistamine on crude hH3R membrane extracts; type: binding; details: for Ki: mean of at least three independent experiments, each in triplicates, Cheng-Prusoff; for H3R binding, result in words: radioligand depletion assay against H3R
T1 construct: expressed in transfected cells; host or cells: HEK-293 cells stably expressing hH3R
T1 sequence (Q9Y5N1 whole entry): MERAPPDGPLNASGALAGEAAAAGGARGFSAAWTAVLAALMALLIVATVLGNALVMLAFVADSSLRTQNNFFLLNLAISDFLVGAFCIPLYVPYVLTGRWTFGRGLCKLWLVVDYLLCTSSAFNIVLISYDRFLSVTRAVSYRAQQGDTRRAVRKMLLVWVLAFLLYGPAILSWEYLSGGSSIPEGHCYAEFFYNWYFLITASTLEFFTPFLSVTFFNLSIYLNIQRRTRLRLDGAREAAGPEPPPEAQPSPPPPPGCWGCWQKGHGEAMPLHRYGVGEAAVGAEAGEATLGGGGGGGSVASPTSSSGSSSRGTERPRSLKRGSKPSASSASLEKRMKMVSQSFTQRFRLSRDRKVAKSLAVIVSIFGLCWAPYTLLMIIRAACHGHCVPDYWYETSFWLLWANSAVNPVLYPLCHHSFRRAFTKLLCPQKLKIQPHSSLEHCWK
Method: Radioligand depletion assays were performed as described previously using crude hH3R membrane extracts obtained from HEK-293 cells stably expressing the hH3R [15, 57]. Briefly, crude membrane extracts were incubated with various concentrations of test ligands (between 0.01 nM and 100 μM) and [3H]-N-alpha-methylhistamine. Bound radioligand were harvested through GF/B filters and measured using liquid scintillation counting. Data analysis were performed with GraphPad Prism 6 using non-linear regression. The Ki values for each experiment were obtained according to Cheng-Prusoff and converted to pKi values to allow statistical analysis. Mean values were calculated from at least three independent experiments, each performed in triplicates (Table E in S1 File).

Structure (SMILES): c1nc([C@H]2C[C@@H]2CCNCC2CCCCC2)c[nH]1 [CHEMBL214312]
Ki ([1]; ref 7 (S1 File)): 5.3 nM

Structure (SMILES): N#CC(C#N)=C1N(CCCN2CCCCC2)CCN1CCCN1CCCCC1 [CHEMBL257391]
Ki ([1]; ref 6 (S1 File)): 2.4 nM

Structure (SMILES): C[C@@H]1CCCN1CCc1cc2cc(CNc3ccc(Cl)nn3)ccc2o1 [CHEMBL362952]
Ki ([1]; ref 10 (S1 File)): 0.3 nM

Structure (SMILES): C[C@@H]1C[C@@](O)(C#Cc2cccc3ccccc23)[C@@H](C)CN1C [CHEMBL1269844]
IC50 ([2]; ref 3 (S1 File)): 9 nM

Structure (SMILES): C[C@@H]1CCCN1CCCOc1ccc(-c2cc(-c3ccccc3)c(=O)n(C)c2)cc1 [CHEMBL1923737]
Ki ([1]; ref 5 (S1 File)): 3.5 nM

Structure (SMILES): CCNC(=O)C1CC(F)(c2ccc(CN3CCCC3)c(F)c2)C1 (centres unmarked) [CHEMBL2151197]
Ki ([1]; ref 9 (S1 File)): 2.3 nM

Structure (SMILES): CN(C)CCc1ccc(NC(=O)Nc2ccc(CCN(C)C)cc2)cc1 [CHEMBL2387294]
IC50 ([2]; ref 2 (S1 File)): 6.5 nM

Structure (SMILES): c1ccc2c(CCNc3ccc(CN4CCOCC4)cc3)c[nH]c2c1 [CHEMBL2419581]
Ki ([1]; ref 4 (S1 File)): 4.3 nM

Structure (SMILES): CC(C)N1CCN(C(=O)[C@H]2CC23CCN(C2CCOCC2)CC3)CC1 [CHEMBL3124968]
IC50 ([2]; ref 8 (S1 File)): 8.3 nM

Ki [3]: 148 nM | H3R binding, result in words [3]: nanomolar concentration ranges
Structure (SMILES): O=C(c1csc(-c2ccccc2)n1)N1CCCN(C2CC2)CC1 [compound 5]

Ki [3]: 38.2 nM | H3R binding, result in words [3]: nanomolar concentration ranges
Structure (SMILES): CCN1CCN(C(=O)c2ccc(-c3nc4ccccc4s3)s2)CC1 [compound 6]

H3R binding, result in words [3]: inactive
Structure (SMILES): Cc1csc(-c2ccc(C(=O)N3CCN(C)CC3)cc2)n1 [compound 8]
